The target of data set [1] is T1, Aldehyde dehydrogenase 1A3 (ALDH1A3) (Homo sapiens, UniProt P47895).
T1 sequence (P47895 2-512): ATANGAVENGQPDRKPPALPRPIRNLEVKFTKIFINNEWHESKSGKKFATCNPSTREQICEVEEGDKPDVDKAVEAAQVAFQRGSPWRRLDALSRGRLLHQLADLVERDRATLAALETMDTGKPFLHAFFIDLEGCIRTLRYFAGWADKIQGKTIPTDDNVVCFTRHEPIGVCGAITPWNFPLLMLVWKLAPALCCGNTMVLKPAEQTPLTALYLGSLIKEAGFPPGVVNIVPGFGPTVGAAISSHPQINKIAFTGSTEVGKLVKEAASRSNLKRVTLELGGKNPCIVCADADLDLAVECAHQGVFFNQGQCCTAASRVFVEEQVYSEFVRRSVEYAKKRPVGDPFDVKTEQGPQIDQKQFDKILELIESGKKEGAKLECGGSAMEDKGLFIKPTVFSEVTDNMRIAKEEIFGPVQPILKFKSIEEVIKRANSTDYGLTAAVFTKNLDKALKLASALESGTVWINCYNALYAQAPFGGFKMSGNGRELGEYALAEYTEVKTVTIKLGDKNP
Briefly: X-ray crystal structure of the complex with NR6 (protein preincubated with […] NAD+). The format is binding.

Data set [2] deals with the molecule itself. Briefly: crystal structure; ALDH1A3 at 8 mg/mL preincubated with 1 mM NAD+ and 300 uM NR6; sitting drop vapor diffusion, 2.4 M sodium malonate pH 7.0, 20 °C; space group P2(1)22(1), two molecules per asymmetric unit.

For `NC(=O)c1ccc[n+]([C@@H]2O[C@H](COP(=O)([O-])OP(=O)(O)OC[C@H]3O[C@@H](n4cnc5c(N)ncnc54)[C@H](O)[C@@H]3O)[C@@H](O)[C@H]2O)c1` [NAD+], the “X-ray crystal structure of the complex with NR6 (protein preincubated with 1 mM)” value in data set [1] is “both are bonded with one molecule of NAD^+ and one molecule of NR6”.

B1: human aldehyde dehydrogenase 1A3 (enzyme)
chain: MATANGAVENGQPDRKPPALPRPIRNLEVKFTKIFINNEWHESKSGKKFATCNPSTREQICEVEEGDKPDVDKAVEAAQVAFQRGSPWRRLDALSRGRLLHQLADLVERDRATLAALETMDTGKPFLHAFFIDLEGCIRTLRYFAGWADKIQGKTIPTDDNVVCFTRHEPIGVCGAITPWNFPLLMLVWKLAPALCCGNTMVLKPAEQTPLTALYLGSLIKEAGFPPGVVNIVPGFGPTVGAAISSHPQINKIAFTGSTEVGKLVKEAASRSNLKRVTLELGGKNPCIVCADADLDLAVECAHQGVFFNQGQCCTAASRVFVEEQVYSEFVRRSVEYAKKRPVGDPFDVKTEQGPQIDQKQFDKILELIESGKKEGAKLECGGSAMEDKGLFIKPTVFSEVTDNMRIAKEEIFGPVQPILKFKSIEEVIKRANSTDYGLTAAVFTKNLDKALKLASALESGTVWINCYNALYAQAPFGGFKMSGNGRELGEYALAEYTEVKTVTIKLGDKNP
notes: Aldehyde dehydrogenase 1A3 (ALDH1A3), human, recombinant; also called ALDH1A3; hALDH1A3; source: recombinant, purified
Take B1: in data set [2], the binding result is listed as “binds”.

For the origin of these results see paper PMC7835878, “A Selective Competitive Inhibitor of Aldehyde Dehydrogenase 1A3 Hinders Cancer Cell Growth, Invasiveness and Stemness In Vitro” (Cancers, 2021).
